Measurements from paper PMC3684613 (PLoS ONE, 2013).
Where two headings read alike, the source gives them in different places.

Tests used:
[1] = system: P. falciparum 3D7; parameters: method as in ChEMBL-NTD; conditions: ref ChEMBL-NTD, cited from earlier work
[2] = system: P. falciparum 3D7; test: DAPI stain fluorescent high content imaging assay, P. falciparum 3D7 (confirmatory screen, Avery); conditions: Plasmodium falciparum; for inhibition of growth at 5 µM: 3D7, read-out: percent_inh @ 5 uM; for EC50: 3D7, read-out: EC50_nM

| Compound | inhibition of growth at 5 µM [2] | EC50 [2] | further results |
| --- | --- | --- | --- |
| Cc1ccc(S(=O)(=O)c2c(COC(=O)c3cccc(C)c3)c(-c3ccccc3)nn2C)cc1 [MMV665936] | 95% | – | EC50 ([1]; source GNF (GNF-Pf ids)): 8400 nM |
| O=C(Nc1ccsc1C(=O)NC1CCCCC1)c1ccc(F)cc1 [MMV665939] | 86% | – | EC50 ([1]; source GSK): 1210 nM |
| CCOc1ccc(C=Cc2nc(=O)c3ccccc3o2)cc1 [MMV665940] | 95% | 560 nM | EC50 ([1]; source StJude): 188 nM |
| CN(C)c1ccc(C(O)(c2ccc(N(C)C)cc2)c2ccc(N(C)C)cc2)cc1 [MMV665941] | 96% | 255 nM | EC50 ([1]; source StJude (SJ id)): 620 nM |
| Nc1ccc(-c2nc3cc(Cc4ccc5[nH]c(-c6ccc(N)cc6)nc5c4)ccc3[nH]2)cc1 [MMV665943] | 100% | 1420 nM | EC50 ([1]; source GNF (GNF-Pf ids)): 243 nM; EC50 ([1]; source GSK (TCMDC ids)): 512 nM; EC50 ([1]; source StJude (SJ ids)): 1080 nM |
| COc1ccc(CN2CCN(Cc3ccccc3)CC2)c(O)c1 [MMV665944] | 96% | 1080 nM | EC50 ([1]; source StJude (SJ ids)): 1090 nM |
| CC(C)=CCN1CCC(C(=O)Nc2ccc(-c3nc4ccccc4[nH]3)cc2)CC1 [MMV665946] | 96% | 1160 nM | EC50 ([1]; source GSK): 908 nM; EC50 ([1]; source StJude): 1340 nM |
| O=C(Nc1ccccc1O)c1ccc(-c2ccc(Cl)cc2Cl)o1 [MMV665948] | 97% | – | EC50 ([1]; source StJude): 2460 nM |
| Oc1ccc(C(=C(Cl)Cl)c2ccc(O)cc2)cc1 [MMV665949] | 95% | – | EC50 ([1]; source StJude (SJ ids)): 2470 nM |
| O=C(Nc1ccc(F)c(Cl)c1)Nc1ccc(Cl)c(Cl)c1 [MMV665953] | 95% | 2060 nM | EC50 ([1]; source StJude): 5410 nM |
| O=C(NCC1Cc2cccc(-c3ccncc3)c2O1)c1csc2c1CCCC2 (stereo not shown) [MMV665954] | 87% | 1720 nM | EC50 ([1]; source StJude): 8740 nM |
| CCN(CC)CCCNc1nc(-c2ccc(Cl)cc2)nc2ccccc12 [MMV665961] | 92% | – | EC50 ([1]; source StJude): 15000 nM |
| COc1cccc(C(=O)NC(c2ccc(C)cc2)c2cc(Cl)c3cccnc3c2O)c1 (stereo not shown) [MMV665969] | 97% | 393 nM | EC50 ([1]; source StJude (SJ ids)): 15000 nM |
| CCOC(=O)C1=C(C)N=c2sc(=Cc3cc(Cl)ccc3O)c(=O)n2C1c1ccc(OC)cc1 (stereo not shown) [MMV665971] | 97% | 489 nM | EC50 ([1]; source GSK (TCMDC ids)): 746 nM; EC50 ([1]; source StJude (SJ ids)): 15000 nM |
| O=C(Cc1ccccc1)NC(c1ccc(Cl)cc1)c1c(O)ccc2ccccc12 (stereo not shown) [MMV665972] | 97% | 1140 nM | EC50 ([1]; values follow the order of the source (GNF; GSK; StJude)): 15000 nM |
| CCOC(=O)c1cn(CC)c2cc(N(C)CCc3ccc(OC)c(OC)c3)c(F)cc2c1=O [MMV665977] | 99% | 205 nM | EC50 ([1]; source GNF (GNF-Pf id)): 103 nM; EC50 ([1]; source GSK (TCMDC id)): 425 nM |
| FC(F)(F)c1cccc(CNC2CCN(CCc3ccccc3)CC2)c1 [MMV665979] | 96% | 685 nM | EC50 ([1]; source GNF): 174 nM |
| OC1CCCCC1C1(NC(=S)Nc2ccccc2)CCCCC1 (stereo not shown) [MMV665980] | 59% | – | EC50 ([1]; source GNF (GNF-Pf ids)): 211 nM |
| CCCCCCc1cc(O)c2c3c(c(=O)oc2c1)CCC(C)C3 (stereo not shown) [MMV665987] | 96% | 534 nM | EC50 ([1]; source GNF (GNF-Pf ids)): 364 nM |
| Cc1nc2ccccc2c(O)c1CC=C(Cl)Cl [MMV665994] | 89% | 836 nM | EC50 ([1]; source GNF (GNF-Pf ids)): 498 nM |
| CN1c2ccccc2N(C)C1c1ccc2c(c1)OCO2 [MMV666009] | 60% | 994 nM | EC50 ([1]; source GNF): 1120 nM |
| Cc1ccc(OCCCCCCNCCO)c(C)c1 [MMV666020] | 49% | – | EC50 ([1]; source GNF (GNF-Pf ids)): 1970 nM |
| Cc1ccc(-c2cc3c(nn2)-c2ccccc2C3=O)cc1 [MMV666021] | 99% | 94.4 nM | EC50 ([1]; source GNF): 2000 nM |
| COc1ccc(C(=O)NC(c2ccccc2Cl)c2cc(Cl)c3cccnc3c2O)cc1 (stereo not shown) [MMV666022] | 96% | 830 nM | EC50 ([1]; source GNF (GNF-Pf ids)): 2370 nM |

| Compound | inhibition of growth at 5 µM [2] | EC50 [2] | further results |
| --- | --- | --- | --- |
| c1ccc(Cn2c(N=Nc3c(Nc4ccccc4)ccc4ccccc34)nc3ccccc32)cc1 [MMV666023] | 96% | 36.8 nM | EC50 ([1]; source GNF (GNF-Pf id)): 2730 nM |
| OC(Cn1nnc2ccccc21)Cn1c2ccc(Br)cc2c2cc(Br)ccc21 (stereo not shown) [MMV666025] | 98% | 1260 nM | EC50 ([1]; source GNF (GNF-Pf ids)): 3370 nM |
| COc1ccc(-c2cc3c(nn2)-c2ccccc2C3=O)cc1 [MMV666026] | 97% | – | EC50 ([1]; source GNF (GNF-Pf ids)): 3840 nM |
| COc1ccc(C(=O)NC(c2ccc(Cl)cc2Cl)c2cc(Cl)c3cccnc3c2O)cc1 (stereo not shown) [MMV666054] | 96% | 513 nM | EC50 ([1]; source GSK (TCMDC ids)): 499 nM |
| O=C(Nc1ccc(Cl)cc1C(=O)Nc1ccncc1)c1ccc(Cl)cc1Cl [MMV666057] | 94% | – | EC50 ([1]; source GSK): 611 nM |
| COc1ccc(CN2CCCC(C(=O)c3ccc(C(F)(F)F)cc3)C2)c(O)c1 (stereo not shown) [MMV666060] | 97% | – | EC50 ([1]; source GSK (TCMDC ids)): 849 nM |
| COc1cccc(O)c1CN1CCC2(CCCN(Cc3ccc(F)cc3)C2)C1 (stereo not shown) [MMV666061] | 95% | 530 nM | EC50 ([1]; source GSK): 865 nM |
| Cc1ccc(N2C(=O)C3C(C2=O)C2(c4ccccc4)C(=O)C3(c3ccccc3)C(c3ccccc3)=C2c2ccccc2)cc1 (stereo not shown) [MMV666062] | 98% | 282 nM | EC50 ([1]; source GSK (TCMDC id)): 869 nM |
| COc1ccc(CNC2CCN(c3ccc(NC(=O)c4cccc(Cl)c4)cc3)CC2)cc1OC [MMV666067] | 97% | 663 nM | EC50 ([1]; source GSK): 1020 nM |
| COc1ccc(CCN2CCC(CN(C)Cc3cnn(-c4ccccc4)c3)CC2)cc1 [MMV666069] | 96% | 1430 nM | EC50 ([1]; source GSK): 1160 nM |
| O=C(NC1CCCC1)c1ccc(N2CCC(NCc3cccc(C(F)(F)F)c3)CC2)cc1 [MMV666070] | 93% | – | EC50 ([1]; source GSK): 1330 nM |
| Cc1ccc(CN2CCC(C(=O)Nc3ccc(-c4cc5ccccc5[nH]4)cc3)CC2)o1 [MMV666071] | 77% | – | EC50 ([1]; source GSK): 1420 nM |
| COCCNC(=O)c1ccc(OC2CCN(Cc3ccc(F)c(F)c3)CC2)c(Cl)c1 [MMV666072] | 91% | – | EC50 ([1]; source GSK): 1490 nM |
| COc1ccc(C2N(C)c3ccccc3N2C)cc1 [MMV666075] | 62% | – | EC50 ([1]; source StJude): 15000 nM |
| Cc1ccc2cc3c(N)c4c(C)ccc(C)c4nc3nc2c1 [MMV666079] | 98% | 1310 nM | EC50 ([1]; source GNF (GNF-Pf ids)): 431 nM |
| O=C(NC(c1ccccc1)c1ccc2cccnc2c1O)c1ccccc1 (stereo not shown) [MMV666080] | 95% | 1170 nM | EC50 ([1]; source GNF): 533 nM; EC50 ([1]; source GSK): 428 nM |
| CCCc1c(C)nc2ccccc2c1O [MMV666081] | 88% | – | EC50 ([1]; source GNF): 630 nM |
| CCCC(c1nnnn1C1CCCCC1)N1CCN(C(=O)c2ccco2)CC1 (stereo not shown) [MMV666093] | 82% | – | EC50 ([1]; source GNF): 1330 nM |
| CCCc1c(C)nc2ccc(Br)cc2c1O [MMV666095] | 64% | 1190 nM | EC50 ([1]; source GNF (GNF-Pf ids)): 1510 nM |
| COc1ccc(C2=C(c3ccc(OC)cc3)C3(c4ccccc4)C(=O)C2(c2ccccc2)C2C(=O)N(c4ccc(C)cc4)C(=O)C23)cc1 (stereo not shown) [MMV666101] | 98% | 148 nM | EC50 ([1]; source GNF (GNF-Pf id)): 12500 nM |
| CN(C)c1ccc(-c2nc3cc(N)ccc3[nH]2)cc1 [MMV666102] | 64% | – | EC50 ([1]; source GSK): 239 nM |
| CCn1c(SCC(=O)Nc2cc(C(F)(F)F)ccc2Cl)nc2ccccc2c1=O [MMV666103] | 91% | 1000 nM | EC50 ([1]; source GSK): 397 nM |
| COCCN(C(=O)Cc1cccs1)C(C(=O)NCc1ccc(OC)cc1)c1ccc(C(C)C)cc1 (stereo not shown) [MMV666105] | 92% | 1190 nM | EC50 ([1]; source GSK): 845 nM |
